Where two headings read alike, the source gives them in different places.
Legend:
PBMCs [1] = assay: Cytotoxicity test in PBMCs, viability dye (SYTOX) and flow cytometry; settings: after proliferation for 3 to 5 days
From the text: (§1) To test for cytotoxicity, PBMCs were stained with CELLTRACE (Thermo Fisher Scientific) CFSE (positive control) or Compound 2. The cells were split into samples for culturing and one sample was stimulated with anti-hCD3 (clone UCHT1) and supplemented with recombinant hIL2. Dye loading was observed by fluorescent microscopy. After proliferation for 3 to 5 days, the samples were stained with the appropriate viability dye (e.g., SYTOX dye) and analyzed by flow cytometry (see Table 3).

A549 cells = assay: CYQUANT Direct cytotoxicity assay; settings: 10 μM, 30 mins at 37° C.; assayed on days 1, 2 and 3
Method: A549 cells plated in a 96 well plate were labeled with [sequence] […] The LCIS was then aspirated from cells and complete media added for an overnight incubation. The following day (Day 1) cells were assayed for cytotoxicity using the CYQUANT Direct assay (Thermo Fisher Scientific).

[2] = test system: lymphocyte layer of cells from whole blood; assay: Cell tracing by dye dilution, flow cytometry (Compound 2 vs CELLTRACE Far Red DDAO); assay type: cell-based; settings: 5 μM, 20 min 37° C.; stimulated 5 days with DYNABEADS Human T-Activator CD3/CD28; 633/635 nm excitation, 660/20 emission filter
Method: The whole blood sample (20 mL) was diluted in 20 mL of PBS and then centrifuged for 30 min after addition of FICOLL-PAQUE Plus (15 mL) (GE Healthcare). The lymphocyte layer of cells was suspended in 25 mL of PBS buffer and centrifuged for 5 min. The cells were counted on the COUNTESS Automated Counter and the concentration was adjusted to 10^6 cells/mL. 10 mL of cells was incubated with either Compound 2 (FIG. 1A) or CELLTRACE Far Red DDAO (FIG. 1B) (Thermo Fisher Scientific) (5 μM) for 20 min in a 37° C. water bath. After incubation the cells were treated with 40 mL of OPTMIZER T Cell Expansion (Thermo Fisher Scientific) for 5 min. The treatment with OPTMIZER T Cell Expansion was repeated one more time after centrifugation. Next, the stained cells were stimulated with 50 μL DYNABEADS Human T-Activator CD3/CD28 (Thermo Fisher Scientific) per 1 mL of cells for 5 days. The stimulated cells were then analyzed using an ATTUNE flow cytometer (Thermo Fisher Scientific) with 633/635 nm excitation and a 660/20 bandpass emission filter.

PBMCs [3] = test system: PBMCs
From the text: as §1

% Live Cells (PBMCs [3]) [%]	Compound	% Live Cells (PBMCs [1]; 2 μM dye) [%]	% Live Cells (PBMCs [1]; 5 μM dye) [%]	% Live Cells (PBMCs [1]; 10 μM dye) [%]	cytotoxicity compared to DMSO alone (A549 cells)	generations of cells traced [2]
–	CN1CCCc2cc3c(cc21)C(C)(C)c1cc2c(cc1=C3c1ccccc1C(=O)[O-])CCC[N+]=2CCCCCC(=O)ON1C(=O)CCC1=O [Compound 2, 2-(1-(6-((2,5-dioxopyrrolidin-1-yl)oxy)-6-oxohexyl)-11-metheyliumyl-13,13-dimethyl-1,2,3,4,8,9,10,13-octahydro-1114-benzo[1,2-g:5,4-g′]diquinolin-6-yl)benzoate]	53	55	64	no cytotoxicity	seven
52	Carboxyfluorescein diacetate succinimidyl ester [CELLTRACE CFSE]	–	–	–	–	–

Reference: patent US10739330B2, “Carbopyronone compounds useful as diagnostic adjuvants” (LIFE TECHNOLOGIES CORPORATION, priority 2014, dated 2020)
